Reference: patent US20020035061A1, “COMPOSITIONS AND METHODS FOR TREATING INFECTIONS USING CATIONIC PEPTIDES ALONE OR IN COMBINATION WITH ANTIBIOTICS” (priority 1996, published 2002)
Read-outs that look alike come from different tables or passages of the source.

Legend:
[1] = test system: MSSA (Smith, ATCC # 19640); assay: In vivo efficacy, MSSA infection; set-up: species or system S. aureus; settings: formulation D; for % Survival: 60 min post-infection, end of eight day observation
E. faecalis = type: cell-based; settings: E. faecalis EFS001
E. faecium = type: cell-based
bacterial isolates = assay: microbe, parasite or virus in culture; type: cell-based
S. marcescens = type: cell-based
S. aureus = type: cell-based; settings: for Peptide MIC values: agarose dilution
E. cloacae = type: cell-based; settings: E. cloacae ECL007
S. maltophilia = type: cell-based; settings: S. maltophilia SMA001
H. influenzae = assay: Agarose dilution assay (MIC); type: cell-based; settings: H. influenzae HIN001

ILKKWPWWPWRRK [MBI 11CN]
% Survival ([1]; 12 mg/kg ip): 0%
% Survival ([1]; 24 mg/kg ip): 50%
mice rescued from MSSA infection ([1]; mice, ip 60 min post-infection, 35.7 mg/kg): 100%
activity ([1]; mice, ip, dose levels lower than 35.7 mg/kg): little or no activity
MIC (E. faecalis): 32 µg/mL
MIC (E. faecium; E. faecium EFM001): 8 µg/mL
Peptide MIC values (E. faecium; agarose dilution): 8 µg/mL
Peptide MIC + Tobramycin (bacterial isolates; A. baumannii ABI001): 16 µg/mL
Tobramycin MIC + Peptide (bacterial isolates; A. baumannii ABI001): 4 µg/mL
Peptide MIC Alone (bacterial isolates; A. baumannii ABI001, Tobramycin section): 64 µg/mL
Peptide MIC + Tobramycin (bacterial isolates; E. coli ECO006): 0.25 µg/mL
Tobramycin MIC + Peptide (bacterial isolates; E. coli ECO006): 4 µg/mL
Peptide MIC Alone (bacterial isolates; E. coli ECO006, Tobramycin section): 8 µg/mL
Peptide MIC + Piperacillin (bacterial isolates; P. aeruginosa 22): 32 µg/mL
Piperacillin MIC + Peptide (bacterial isolates; P. aeruginosa 22): 4 µg/mL
Peptide MIC Alone (bacterial isolates; P. aeruginosa 22, Piperacillin section): 64 µg/mL
Peptide MIC + Piperacillin (bacterial isolates; P. aeruginosa 23): 4 µg/mL
Piperacillin MIC + Peptide (bacterial isolates; P. aeruginosa 23): 64 µg/mL
Peptide MIC Alone (bacterial isolates; P. aeruginosa 23, Piperacillin section): 128 µg/mL
Peptide MIC + Tobramycin (bacterial isolates; P. aeruginosa PA032): 4 µg/mL
Tobramycin MIC + Peptide (bacterial isolates; P. aeruginosa PA032): 8 µg/mL
Peptide MIC Alone (bacterial isolates; P. aeruginosa PA032, Tobramycin section): >128 µg/mL
Peptide MIC + Piperacillin (bacterial isolates; S. aureus 18 MRSA): 16 µg/mL
Piperacillin MIC + Peptide (bacterial isolates; S. aureus 18 MRSA): 0.5 µg/mL
Peptide MIC Alone (bacterial isolates; S. aureus 18 MRSA, Piperacillin section): 32 µg/mL
Peptide MIC + Piperacillin (bacterial isolates; S. aureus 19 MRSA): 1 µg/mL
Piperacillin MIC + Peptide (bacterial isolates; S. aureus 19 MRSA): 64 µg/mL
Peptide MIC Alone (bacterial isolates; S. aureus 19 MRSA, Piperacillin section): 8 µg/mL
Peptide MIC + Tobramycin (bacterial isolates; S. maltophilia SMA029): 2 µg/mL
Tobramycin MIC + Peptide (bacterial isolates; S. maltophilia SMA029): 64 µg/mL
Peptide MIC Alone (bacterial isolates; S. maltophilia SMA029, Tobramycin section): >128 µg/mL
Peptide MIC + Tobramycin (bacterial isolates; S. maltophilia SMA035): 32 µg/mL
Tobramycin MIC + Peptide (bacterial isolates; S. maltophilia SMA035): 4 µg/mL
Peptide MIC Alone (bacterial isolates; S. maltophilia SMA035, Tobramycin section): 128 µg/mL
FIC (bacterial isolates; peptide + Piperacillin, P. aeruginosa 22): 0.52
FIC (bacterial isolates; peptide + Piperacillin, P. aeruginosa 23): 0.53
FIC (bacterial isolates; peptide + Piperacillin, S. aureus 18 MRSA): 0.50
FIC (bacterial isolates; peptide + Piperacillin, S. aureus 19 MRSA): 0.38
FIC (bacterial isolates; peptide + Tobramycin, A. baumannii ABI001): 0.50
FIC (bacterial isolates; peptide + Tobramycin, E. coli ECO006): 0.53
FIC (bacterial isolates; peptide + Tobramycin, P. aeruginosa PA032): 0.52
FIC (bacterial isolates; peptide + Tobramycin, S. maltophilia SMA029): 0.51
FIC (bacterial isolates; peptide + Tobramycin, S. maltophilia SMA035): 0.38
MIC (S. marcescens; S. marcescens SBSM1): >128 µg/mL
MIC (S. marcescens; S. marcescens SMS003): >128 µg/mL
Peptide MIC values (S. marcescens; agarose dilution, S. marcescens SM82): >128 µg/mL
MIC (S. aureus; S. aureus SA003): 2 µg/mL
Peptide MIC values (S. aureus; S. aureus MRSA9): 2 µg/mL
Peptide MIC values (S. aureus; S. aureus MRSA13): 16 µg/mL
Peptide MIC values (S. aureus; S. aureus MRSA17): 4 µg/mL
MIC (E. cloacae): >64 µg/mL
MIC (S. maltophilia): 64 µg/mL
MIC (H. influenzae): >128 µg/mL
